Test results reported in article PMC10301845, “Characterization of a Novel M4 PAM PET Radioligand [11C]PF06885190 in Nonhuman Primates (NHP)” (Molecules, 2023).

Key:
[1] = target: T1, M4 (Homo sapiens, UniProt P08173); assay: human M4 binding affinity (evaluated by Pfizer); details: identified and evaluated by Pfizer
T1 sequence (P08173 1-479): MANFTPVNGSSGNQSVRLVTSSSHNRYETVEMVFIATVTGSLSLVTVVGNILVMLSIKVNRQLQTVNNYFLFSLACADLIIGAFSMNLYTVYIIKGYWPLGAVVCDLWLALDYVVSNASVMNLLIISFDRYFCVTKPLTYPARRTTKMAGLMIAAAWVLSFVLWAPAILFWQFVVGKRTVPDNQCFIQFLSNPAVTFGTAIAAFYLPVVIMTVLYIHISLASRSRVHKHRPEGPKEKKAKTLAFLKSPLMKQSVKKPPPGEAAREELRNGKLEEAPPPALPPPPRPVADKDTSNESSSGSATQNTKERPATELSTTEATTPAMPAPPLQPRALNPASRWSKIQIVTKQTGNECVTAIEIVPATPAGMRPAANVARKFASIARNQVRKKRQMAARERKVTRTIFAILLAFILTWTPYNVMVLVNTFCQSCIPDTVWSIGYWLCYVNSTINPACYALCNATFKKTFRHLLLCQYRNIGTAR

[2] = target: T2, M4 (Rattus norvegicus, UniProt P08485); assay: rat M4 binding affinity (evaluated by Pfizer); details: identified and evaluated by Pfizer
T2 sequence (P08485 1-478): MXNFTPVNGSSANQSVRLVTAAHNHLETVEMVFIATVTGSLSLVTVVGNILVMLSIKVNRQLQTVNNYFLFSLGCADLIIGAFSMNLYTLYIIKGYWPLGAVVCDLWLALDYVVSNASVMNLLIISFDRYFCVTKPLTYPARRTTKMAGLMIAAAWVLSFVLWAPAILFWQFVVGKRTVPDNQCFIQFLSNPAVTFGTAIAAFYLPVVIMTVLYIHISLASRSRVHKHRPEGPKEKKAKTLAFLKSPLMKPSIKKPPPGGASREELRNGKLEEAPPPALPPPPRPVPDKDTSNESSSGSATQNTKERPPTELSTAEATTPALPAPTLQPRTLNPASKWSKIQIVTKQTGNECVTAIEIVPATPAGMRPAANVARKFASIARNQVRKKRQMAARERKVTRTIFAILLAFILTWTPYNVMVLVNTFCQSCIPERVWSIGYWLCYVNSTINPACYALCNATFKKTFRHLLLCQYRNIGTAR

CNc1nc(C)c(C)c2c1CN(C(=O)C[C@H]1C[C@@H]1c1ccc(F)nc1)C2 [PF06885190, 1-(6,7-dimethyl-4-(methylamino)-1,3-dihydro-2H-pyrrolo [3,4-c]pyridin-2-yl)-2-((1R,2S)-2-(6-fluoropyridin-3-yl)cyclopropyl)ethan-1-one]
Ki [1]: 0.16 nM
Ki [2]: 7.15 nM
